Measurements published in patent US20240299299A1, “COMPOSITIONS AND METHODS FOR INCREASING THE EFFICACY OF IMMUNOTHERAPIES AND VACCINES” (The Regents of the University of Michigan, priority 2021, published 2024).

Assays:
[1] = tested on: immune checkpoint blockers (ICBs); details: reported in literature; cited from earlier work
OT-I CD8+ T cells [2] = assay: In vitro central memory (Tcm) differentiation of OT-I CD8+ T cells activated with SIINFEKL peptide and IL-2 with metabolites; format: cell-based, mice; details: day 8; metabolite-supplemented medium (arginine 3 mM, 3-methylhistidine 3 mM, DHB 100 μM, sodium ferulate 100 μM)
Description: (§1) FIG. 2: a) OT-I CD8+ T cells were cultured with different metabolites in vitro as indicated, b,c) shown is the frequency of CD44^+CD62L^+ Tcm CD8+ T cells on day 8. d) OT-I CD8+ T cells were activated with α-CD3/α-CD28 antibodies in presence of metabolites as indicated and shown is the Tcm CD8+ T cells on day 7. Data represent the mean±s.e.m. (n=5).
(§2) Splenocytes from OT-I mice were obtained aseptically. The cells were cultured in 96-well plates (1×10^5 cells per well). For Tcm differentiation study, cells were activated with SIINFEKL peptide (4×10^−9M) in the presence of various metabolites (arginine: 3 mM; 3-methylhistidine: 3 mM; N-acetylneuraminate: 100 μM; disodium sebacate: 100 μM; DHB: 100 μM; pantothenate: 100 μM; γ-aminobutyric acid: 100 μM; glycerol: 100 μM; AICAR: 100 μM, sodium ferulate: 100 μM) for 3 days. Then cells were washed three times with T-cell medium and further cultured with IL-2 (10 ng ml^−1; PeproTech) in the presence of metabolites for 5 days. The cells were then washed twice and re-activated with SIINFEKL peptide (10 μM) for 2 h. The suspension cells were collected, blocked with CD16/32 antibody and stained with the fixable viability dye eFluor 450, FITC-CD44 rat anti-human/mouse and PE-CD62L monoclonal antibody. To test if the central memory CD8+ T cells differentiation is dependent on dendritic cells, CD8 T cells isolated from the spleen in OT-I mice were incubated in the 96-well plate, which was precoated with anti-hamster IgG antibody. […] (1 μg mL^−1) and IL-2 (100 U mL^−1) were added into each well in the presence of 3-methylhistidine (3 mM), DHB (100 μM), or sodium ferulate (100 μM) for 2 days. Then cells were washed for three times to remove α-CD3/α-CD28 antibodies and further incubated with metabolites and IL-2 (10 ng ml^−1) for 5 days. Thereafter, cells were collected for central memory CD8^+ T cells analysis. For CD8^+ T cells survival study, cells were activated with antigen peptide as above, following with thoroughly washing, and incubation in presence of IL-2 for 2 days. Metabolites were added during this incubation (arginine: 3 mM, 1 mM; 3-methylhistidine: 3 mM, 1 mM, 500 μM, 100 μM; N-acetylneuraminate: 100 μM; disodium sebacate: 100 μM; DHB: 100 μM, 50 μM, 20 μM; pantothenate: 100 μM; γ-aminobutyric acid: 100 μM; glycerol: 100 μM; AICAR: 100 μM). Then cells were further incubated in absence of both IL-2 and metabolites for 36 h to induce the apoptosis/dead. For Tcf1^+CD8^+ differentiation study, cells were activated with antigen peptide as above, followed by thoroughly washing, and incubation with metabolites in presence of IL-2 for 3 days. […] Tcf1^+CD8^+, CD44^+CD62L^+CD8^+ and survival (stained with Annexin V-APC and PI) T cells were detected via flow cytometry.

[3] = tested on: CT26 colon carcinoma cells; assay: CT26 tumor model, orally administered metabolites plus α-PD-1; format: in vivo, BALB/c mice; details: oral gavage 3 times every 4 days (DHB 2.4 mg, 3-methylhistidine 3 mg per mouse) plus α-PD-1 i.p.
Description: FIG. 6: a) Therapeutic treatment regimen. BALB/c mice were s.c. inoculated with 1.5×10^5 CT26 colon carcinoma cells. The candidate agents were orally administrated 3 times every 4 days, 100 μg α-PD-1 was injected i.p. on days 10, 14, 18 and 22. b) Average tumor growth, c) individual tumor growth. Data represent the mean±s.e.m. (n=4-5).
Animals were cared for following the federal, state and local guidelines. All work conducted on animals was in accordance with and approved by the Institutional Animal Care and Use Committee (IACUC). Female (6-8 weeks old) BALB/c mice from Jackson Laboratory were inoculated with 1.5×10^5 CT26 cells per mouse on the right flank by s.c. injection. Tumor-bearing mice were randomly assigned to different treatment groups. For intratumoral injection study, the mice were injected with 3-methylhistidine (dose: 1 mg per mouse), sodium hippurate (dose: 1 mg per mouse), disodium sebacate (dose: 1 mg per mouse), sodium ferulate (dose: 1 mg per mouse), or DHB (dose: 0.5 mg per mouse) in 40 μL PBS buffer for every other day. The mice were i.p. injected with α-PD-1 antibody (100 μg per dose; clone RMP1-14, Bioxcell) on days 9, 12, 16 and 20 post tumor inoculation. […] The tumor size was measured, and the tumor volume was calculated as ½×(length×width^2). […]

OT-I CD8+ T cells [4] = assay: CD8+ T cell survival upon IL-2 withdrawal (Annexin V/PI); format: cell-based, mice; details: dependent on the dose of metabolites
Description: FIG. 4: a) OT-I CD8+ T cells were cultured with different metabolites in vitro as indicated, b,c) shown are the level of survival CD8+ T cells (Annexin V^−PI^−) as well as the representative flow cytometry plots on day 5.5. Data represent the mean±s.e.m. (n=5).
as §2, with “days.” for “days. Metabolites were added during this incubation (arginine: 3 mM, 1 mM; 3-methylhistidine: 3 mM, 1 mM, 500 μM, 100 μM; N-acetylneuraminate: 100 μM; disodium sebacate: 100 μM; DHB: 100 μM, 50 μM, 20 μM; pantothenate: 100 μM; γ-aminobutyric acid: 100 μM; glycerol: 100 μM; AICAR: 100 μM). Then cells were further incubated in absence of both IL-2 and metabolites for 36 h to induce the apoptosis/dead. For Tcf1^+CD8^+ differentiation study, cells were activated with antigen peptide as above, followed by thoroughly washing, and incubation with metabolites in presence of IL-2 for 3 days.”

OT-I CD8+ T cells [5] = assay: Tcm differentiation of isolated OT-I CD8+ T cells activated with α-CD3/α-CD28 in the absence of dendritic cells; format: cell-based, mice; details: α-CD3/α-CD28 activation; 3-methylhistidine 3 mM, DHB 100 μM; day 7
Description: as §1
Splenocytes from OT-I mice were obtained aseptically. The cells were cultured in 96-well plates (1×10^5 cells per well). For Tcm differentiation study, cells were activated with SIINFEKL peptide (4×10^−9M) in the presence of various metabolites (arginine: 3 mM; 3-methylhistidine: 3 mM; N-acetylneuraminate: 100 μM; disodium sebacate: 100 μM; DHB: 100 μM; pantothenate: 100 μM; γ-aminobutyric acid: 100 μM; glycerol: 100 μM; AICAR: 100 μM, sodium ferulate: 100 μM) for 3 days. Then cells were washed three times with T-cell medium and further cultured with IL-2 (10 ng ml^−1; PeproTech) in the presence of metabolites for 5 days. The cells were then washed twice and re-activated with SIINFEKL peptide (10 μM) for 2 h. The suspension cells were collected, blocked with CD16/32 antibody and stained with the fixable viability dye eFluor 450, FITC-CD44 rat anti-human/mouse and PE-CD62L monoclonal antibody. […] Tcf1^+CD8^+, CD44^+CD62L^+CD8^+ and survival (stained with Annexin V-APC and PI) T cells were detected via flow cytometry.

[6] = tested on: CT26 colon carcinoma cells; assay: CT26 tumor model, intratumoral metabolites plus α-PD-1; format: in vivo, BALB/c mice
Description: FIG. 5: a) Therapeutic treatment regimen. BALB/c mice were s.c. inoculated with 1.5×10^5 CT26 colon carcinoma cells. The candidate metabolites were injected intratumorally every other day, 100 μg α-PD-1 was i.p. injected on days 9, 12, 16 and 20. b) Average tumor growth, c) individual tumor growth, and d) overall Kaplan-Meier survival are shown. Data represent the mean±s.e.m. (n=5).
Animals were cared for following the federal, state and local guidelines. All work conducted on animals was in accordance with and approved by the Institutional Animal Care and Use Committee (IACUC). Female (6-8 weeks old) BALB/c mice from Jackson Laboratory were inoculated with 1.5×10^5 CT26 cells per mouse on the right flank by s.c. injection. Tumor-bearing mice were randomly assigned to different treatment groups. For intratumoral injection study, the mice were injected with 3-methylhistidine (dose: 1 mg per mouse), sodium hippurate (dose: 1 mg per mouse), disodium sebacate (dose: 1 mg per mouse), sodium ferulate (dose: 1 mg per mouse), or DHB (dose: 0.5 mg per mouse) in 40 μL PBS buffer for every other day. The mice were i.p. injected with α-PD-1 antibody (100 μg per dose; clone RMP1-14, Bioxcell) on days 9, 12, 16 and 20 post tumor inoculation. For oral administration study, the mice were injected with 3-methylhistidine (dose: 3 mg per mouse), sodium hippurate (dose: 3 mg per mouse), disodium sebacate (dose: 3 mg per mouse), sodium ferulate (dose: 3 mg per mouse), or DHB (dose: 2.4 mg per mouse) in PBS buffer for 3 times every 4 days. α-PD-1 was injected on days 10, 14, 18 and 22. The tumor size was measured, and the tumor volume was calculated as ½×(length×width^2). Tumor-bearing mice were euthanized when the tumor size reached 1.5 cm in any diameter or when the animals became moribund with severe weight loss (>20%) or tumor ulceration.

[7] = tested on: CT26 colon carcinoma cells; assay: CT26 tumor model, metabolite monotherapy i.p. without α-PD-1; format: in vivo, BALB/c mice; details: monotherapy without α-PD-1 IgG; i.p. DHB 2.4 mg or 3-methylhistidine 3 mg per dose
Description: FIG. 7: a-d) In vitro cell viability of DHB at various concentrations in activated T cells, MC38, B16F10, and CT26 tumor cells. e) BALB/c mice were s.c. inoculated with 1.5×10^5 CT26 colon carcinoma cells. DHB (2.4 mg per dose) or 3-methylhistidine (3 mg per dose) was i.p. injected 3 times every 4 days, 100 μg α-PD-1 was i.p. injected on days 11, 15, and 20. Shown is the average tumor growth. Data represent the mean±s.e.m. (n=4-5).

OT-I CD8+ T cells [8] = assay: Tcf1+CD8+ differentiation of OT-I T cells with metabolites; format: cell-based, mice; details: day 6
Description: FIG. 3: a) OT-I CD8+ T cells were cultured with different metabolites in vitro as indicated, b,c) shown are the frequency of the Tcf1^+CD8+ T cells and the representative flow cytometry plots on day 6. Data represent the mean±s.e.m. (n=5).
as §2, with “days.” for “days. Metabolites were added during this incubation (arginine: 3 mM, 1 mM; 3-methylhistidine: 3 mM, 1 mM, 500 μM, 100 μM; N-acetylneuraminate: 100 μM; disodium sebacate: 100 μM; DHB: 100 μM, 50 μM, 20 μM; pantothenate: 100 μM; γ-aminobutyric acid: 100 μM; glycerol: 100 μM; AICAR: 100 μM). Then cells were further incubated in absence of both IL-2 and metabolites for 36 h to induce the apoptosis/dead. For Tcf1^+CD8^+ differentiation study, cells were activated with antigen peptide as above, followed by thoroughly washing, and incubation with metabolites in presence of IL-2 for 3 days.”

Row | Compound | efficacy of immune checkpoint blockers (ICBs) [1] | differentiation of CD44+CD62L+ central memory CD8+ T cells (OT-I CD8+ T cells [2]) | frequency of Tcf1+CD8+ T cells (OT-I CD8+ T cells [8]) | further results
1 | CSCC[C@H](N)C(=O)O [methionine] | improve the efficacy of immune checkpoint blockers |  |  | 
2 | Cn1cncc1C[C@H](N)C(=O)O [3-methylhistidine] |  | significantly increased the differentiation | increased the frequency | efficacy of α-PD-1 treatment [3]: improved the efficacy of α-PD-1 treatment; survival of activated CD8+ T cells (OT-I CD8+ T cells [4]): significantly increased the survival; induction of central memory CD8+ T cells in the absence of dendritic cells (OT-I CD8+ T cells [5]): can also induce central memory CD8^+ T cells; systemic antitumor efficacy of α-PD-1 treatment and CT26 tumor growth ([6]; intratumoral every other day (DHB 0.5 mg, 3-methylhistidine 1 mg per mouse) plus α-PD-1 i.p.): improved the systemic antitumor efficacy of α-PD-1 treatment and slowed down the CT26 tumors growth; tumor-free mice on day 70 ([6]; intratumoral metabolite plus α-PD-1 i.p.): 80%; tumor growth in vivo [7]: did not inhibit the tumor growth
3 | CN(CC(=O)O)C(=N)N [creatine] | improve the efficacy of immune checkpoint blockers |  |  | 
4 | COc1cc(/C=C/C(=O)[O-])ccc1O.[Na+] [sodium ferulate] |  | significantly increased the differentiation | increased the frequency | 
